From patent publication US5958416A, “Heat shock protein peptides and methods for modulating autoimmune central nervous system disease” (Regents of the University of Minnesota, priority 1995, dated 1999)
“Also recorded” adds a separate entry of the source. Like-named read-outs stand apart in the source and are kept apart here. No end group written: not given here.

What was measured:
[1] = tested on: experimental autoimmune encephalomyelitis (EAE); test: Modulation of EAE by pre-immunization with CNP 173-184 peptide-KLH (Example 4); format: in vivo, Lewis rats
[2] = tested on: IgG antibodies in CSF and sera of MS and OND patients; test: Dot-blot analysis of patient CSF and sera for antibodies to CNP 173-184 peptide; format: binding, human
Description: Cerebrospinal fluid (CSF) and sera from MS patients and controls were analyzed for antibodies to the peptide derived from CNP isoform 2 (corresponding to amino acids 173-184) using dot-blot analyses. Samples from nine MS patients and five patients with other neurologic diseases (OND) were analyzed. The CNP 173-184 peptide coupled to BSA was adsorbed onto nitrocellulose membranes. Control wells received BSA alone. Two dilutions of paired spinal fluids and sera were added to the wells and the amount of antibody binding determined using peroxidase labeled anti-human IgG and an enhanced chemiluminescent assay (ECL Western Blotting Kit; Amersham International, Plc., Buckinghamshire, England). Using the public domain program, Image 1.40 (available from NIH), the integrated densities of the dots in the CNP 173-184 peptide wells and BSA wells were determined.

[3] = tested on: Peripheral blood lymphocytes (PBL); format: cell-based, human
[4] = tested on: experimental autoimmune encephalomyelitis (EAE); test: Modulation of EAE by pre-immunization with HSP65 peptides not coupled to KLH (Example 9); format: in vivo, Lewis rats; conditions: 50 μg peptide not coupled to KLH, s.c., in IFA; 1 mg GPSC in CFA four weeks later
[5] = positive/tested, peptide coupled to BSA on nitrocellulose, data not shown
[6] = chi-square p, PBL, listed as #6

With “Leu-Lys-Lys-Leu-Lys-Pro-Gly-Leu-Glu-Lys-Asp-Phe (LKKLKPGLEKDF; also: coupled to BSA) [CNP 173-184 peptide, coupled to BSA in blots]” the “EAE after GPSC challenge, pre-immunization in IFA” value ([1]; 50 μg s.c. in IFA, GPSC in CFA five to six weeks later) was “suppression of EAE”, the “p, difference in EAE severity between peptide-IFA and KLH-IFA pre-immunized rats” value ([1]; day 13 post GPSC-CFA immunization) was under 0.02 and the “Integrated densities in peptide wells relative to BSA wells” value ([2]; MS CSF) was “approximately twofold higher”. The “p, MS versus OND patients with CSF antibodies to the peptide” value ([2]; chi square analysis) was under 0.03, the “CSF samples with antibodies to the peptide, MS patients” value [2, 5] was 5/9 and the “CSF samples with antibodies to the peptide, OND patients” value [2, 5] was 0/5. For the same substance, the “Number of MS patients with antibodies to the peptide in sera” value ([2]; sera) was 3 and the “Number of OND patients with antibodies to the peptide in sera” value ([2]; sera) was 1.

In the case of “lys-gly-tyr-ile-ser-gly-tyr-phe-val-thr-asp-ala-glu-arg-gln (KGYISGYFVTDAERQ) [Peptide #6]”, the “T cell proliferative response elicited by the peptide” value ([3]; PBL from MS and OND patients, greater than two-fold above background considered significant) is reported as “elicited specific T cell proliferative responses in some MS patients compared with OND patients”, the “Correlation of responsiveness to the peptide with responsiveness to M. tuberculosis, OND patients” value ([3]; Pearson correlation, PBL) is reported as “No significant correlations” and the “p, correlation of responsiveness to the peptide with responsiveness to M. tuberculosis, DR2+ MS females” value ([3]; Pearson correlation, PBL) is reported as under 0.02. The “p, correlation of responsiveness to the peptide with responsiveness to M. tuberculosis, DR2- MS males” value ([3]; Pearson correlation, PBL) was under 0.01, the “p, correlation of responsiveness to the peptide with responsiveness to M. tuberculosis, all MS patients” value ([3]; Pearson correlation, PBL) was under 0.01 and the “Difference in frequency of proliferative response, Group A greater than Group B: MS F vs MS M” value ([3]; chi-square p, PBL) was “greater response”. The “Difference in frequency of proliferative response, Group A greater than Group B: MS F vs OND M” value ([3]; chi-square p, PBL) was “greater response”, the “Difference in frequency of proliferative response, Group A greater than Group B: MS F, DR2- VS MS M, DR2-” value ([3]; chi-square p, PBL) was “responded more strongly” and the “Difference in frequency of proliferative response, Group A greater than Group B: MS F, DR2- vs MS F, DR2+” value ([3]; chi-square p, PBL) was “N.S”. For the same substance, the “Difference in frequency of proliferative response, Group A greater than Group B: MS M, DR2+ VS MS F, DR2+” value ([3]; chi-square p, PBL) was “N.S”, the “Difference in frequency of proliferative response, Group A greater than Group B: MS F vs MS M” value [3, 6] was under 0.025 and the “Difference in frequency of proliferative response, Group A greater than Group B: MS F vs OND M” value [3, 6] was under 0.0005. The “Difference in frequency of proliferative response, Group A greater than Group B: MS F, DR2- VS MS M, DR2-” value [3, 6] was under 0.05 and the “Protection against EAE after pre-immunization with the peptide” value [4] was “did protect against or decrease the symptoms of EAE; also recorded: significantly decreases both the incidence and severity of EAE; also recorded: protects rats against EAE”.
